Measured values taken from US9580459B2, “Water-soluble ursodeoxycholic acid prodrugs” (Metselex, Inc., priority 2013, dated 2017).

Assays:
primary rat hepatocytes [1] = assay: TGFβ1-induced loss of cellular viability (CellTiter-Fluor viability assay); assay type: cell-based; conditions: presence or absence of 3 U/ml alkaline phosphatase; preliminary results
[2] = target: T1, alkaline phosphatase from bovine intestinal mucosa (Bos taurus, UniProt P19111); assay: alkaline phosphatase catalyzed activation monitored by inverse-gated decoupled 31P NMR; assay type: biochemical; conditions: in vitro, Tris glycine buffer
T1 construct: alkaline phosphatase from bovine intestinal mucosa; purchased Sigma-Aldrich P5521-2KU; host or cells: bovine intestinal mucosa (tissue-derived)
T1 sequence (P19111 20-506 limits assumed): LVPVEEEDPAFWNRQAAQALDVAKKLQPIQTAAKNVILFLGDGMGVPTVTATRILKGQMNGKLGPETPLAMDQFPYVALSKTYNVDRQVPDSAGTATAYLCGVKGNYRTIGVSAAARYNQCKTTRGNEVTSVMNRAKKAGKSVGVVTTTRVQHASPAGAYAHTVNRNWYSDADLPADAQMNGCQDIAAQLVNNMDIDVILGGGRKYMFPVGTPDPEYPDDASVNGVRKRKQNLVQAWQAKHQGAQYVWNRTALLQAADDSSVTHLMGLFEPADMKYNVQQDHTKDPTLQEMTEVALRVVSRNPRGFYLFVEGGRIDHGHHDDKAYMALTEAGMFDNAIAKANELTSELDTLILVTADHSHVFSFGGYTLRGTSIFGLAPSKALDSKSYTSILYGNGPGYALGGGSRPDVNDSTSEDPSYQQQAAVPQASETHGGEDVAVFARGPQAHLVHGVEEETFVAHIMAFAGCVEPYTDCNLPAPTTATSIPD
Experimental: To determine whether the POMC prodrug was indeed activated under in vitro conditions faster than a prodrug where the phosphate moiety is directly linked to an alcohol, a series of experiments were conducted monitoring the alkaline phosphatase catalyzed activation of the prodrugs compound 19d and compound 3 by inverse-gated decoupled ^31P NMR. […] Each data point represents the mean of three separate experiments±standard error of the mean (SEM).
In another example, alkaline phosphatase from bovine intestinal mucosa (P5521-2KU, Sigma-Aldrich, St. Louis, Mo.) was dissolved in 2.0 mL of a 0.100 M […] glycine buffer containing 1.0 mM ZnCl2 and 1.0 mM MgCl2. This stock solution was stored at 4° C. between uses.
Compound 19d (10.0 mg, 0.016 mmol) or compound 3 (8.7 mg, 0.016 mmol) was dissolved in 0.6 mL of a 0.100 M Tris glycine buffer solution containing 1.0 mM ZnCl2 and 1.0 mM MgCl2. […] 50 μL of the previously prepared AP stock solution was further diluted by addition to 0.950 mL of a 0.100 M Tris glycine buffer containing 1.0 mM ZnCl2 and 1.0 mM MgCl2. 10.0 μL of this diluted AP solution was added to the prodrug solution by syringe. […] Conversion (%) was determined from the relative integration of the starting material and product peaks, NMR time stamps were used to determine time. […]

primary rat hepatocytes [3] = assay: TGFβ1-induced cytotoxicity (LDH release); assay type: cell-based; conditions: 100 μM, 12 hours, then 1 nmol/L TGF-β1 24 hours; alkaline phosphatase added for compound 19d; p<0.05
Experimental: To compare the in vitro cytoprotective effects of the new prodrugs with UDCA, an alcohol-linked phosphate prodrug (the 3-substituted prodrug compound 3) and the POMC prodrug compound 19d were evaluated for their ability to modulate TGFβ1-induced cytotoxicity. […] Therefore, AP was added to the culture medium whenever assessing the cytoprotective potential of compound 19d. The ability of compound 3 and compound 19d to inhibit TGFβ1-induced general cell death, as compared with UDCA were analyzed. […] Results are expressed as means±SEM of at least three different experiments (*p<0.01 from respective control; §p<0.05 from respective TGFβ). […] Similarly as before, UDCA, compound 3 and compound 19d, inhibited TGFβ1-induced cytotoxicity by about 40, 30 and 60%, respectively (p<0.05).
In another example, primary rat hepatocytes were isolated from male rats (100-150 g) by collagenase perfusion. Briefly, rats were anesthetized with phenobarbital sodium (100 mg/kg body weight) injected into the peritoneal cavity. […] Cell viability was determined by trypan blue exclusion and was typically 80-85%. […]
In another example, LDH, a stable cytosolic enzyme, is released to cell culture media following cell lysis, and can be used as a marker of cytotoxicity. […] Finally, absorbance was measured at 490 nm, with 690 nm as reference, using a Bio-Rad model 680-microplate reader (Bio-Rad Laboratories, Hercules, Calif.).

[4] = stability in Tris glycine buffer without enzyme (31P NMR); assay type: physicochemical; conditions: 0.100 M Tris glycine buffer with 1.0 mM ZnCl2 and 1.0 mM MgCl2, 1 h, no enzyme
Experimental: Compound 19d (10.0 mg, 0.016 mmol) or compound 3 (8.7 mg, 0.016 mmol) was dissolved in 0.6 mL of a 0.100 M Tris glycine buffer solution containing 1.0 mM ZnCl2 and 1.0 mM MgCl2. […] 50 μL of the previously prepared AP stock solution was further diluted by addition to 0.950 mL of a 0.100 M Tris glycine buffer containing 1.0 mM ZnCl2 and 1.0 mM MgCl2. […] A series of 42 inverse-gated decoupled ^31P NMR's were taken (24 scans each, approximately one minute acquisition time). Conversion (%) was determined from the relative integration of the starting material and product peaks, NMR time stamps were used to determine time. Each experiment was repeated three times.

[5] = aqueous solubility of the prodrugs; assay type: physicochemical
Experimental: To obtain the 7-substituted phosphate ester prodrug of UDCA, benzyl ester 1 was treated with benzyl chloroformate and pyridine in dichloromethane as shown in FIG. 2. This led to a mixture of products, including 3-Cbz-protected alcohol (41%) (compound 4), 7-Cbz-protected alcohol (10%) (compound 5), and recovered starting material (41%). These products were readily separated by column chromatography, which allowed definitive confirmation of the regiochemistry of the prodrugs by ^1H NMR analysis, as the signal of the proton next to the Cbz-protected alcohol (Ha in FIG. 2) was a dddd in the major mono-substituted product (consistent with compound 4) and a ddd in the minor mono-substituted product (consistent with compound 5). Compound 4 was then converted into a 7-substituted phosphate ester prodrug (compound 7) using dibenzyl N,N-diethylphosphoramidite followed by oxidation with H2O2 and then Pd/C catalyzed debenzylation. Similar standard conditions converted compound 5 into the same 3-substituted phosphate ester prodrug (compound 3) that was obtained in FIG. 1. Both phosphate prodrugs (compound 3 and compound 7) were highly aqueously soluble, rapidly dissolving at all concentrations tested (up to 20 mg/mL), and were stable in solution for extended periods of time (>6 months) without any apparent decomposition. […]

| Structure (SMILES) | effect of alkaline phosphatase (AP) in the culture medium on cytoprotective properties (primary rat hepatocytes [1]) | rate of release of UDCA by alkaline phosphatase (compared with compound 3) [2] | inhibition of TGFβ1-induced cytotoxicity (LDH release) (primary rat hepatocytes [3]) | decomposition by 31P NMR in buffer [4] | aqueous solubility [5] |
| --- | --- | --- | --- | --- | --- |
| CC(CCC(=O)OCOP(=O)(O)O)C1CCC2C3C(O)CC4CC(O)CCC4(C)C3CCC12C (stereo not shown) [compound 19, ursodeoxycholic acid phosphonooxymethoxy ester] | required activation by exogenous alkaline phosphatase | faster | – | – | – |
| C[C@H](CCC(=O)O)[C@H]1CC[C@H]2[C@@H]3[C@@H](O)C[C@@H]4C[C@H](O)CC[C@]4(C)[C@H]3CC[C@]12C [UDCA, Ursodeoxycholic acid] | – | – | about 40% | – | – |
| C[C@H](CCC(=O)O)[C@H]1CC[C@H]2[C@@H]3[C@@H](O)C[C@@H]4C[C@H](OP(=O)([O-])[O-])CC[C@]4(C)[C@H]3CC[C@]12C.[Na+].[Na+] [compound 3, 3-(Phosphonatooxy)-ursodeoxycholic acid sodium salt] | does not significantly change | – | ~30% | Neither compound showed decomposition | – |
| C[C@H](CCC(=O)O)[C@H]1CC[C@H]2[C@@H]3[C@@H](OP(=O)([O-])[O-])C[C@@H]4C[C@H](O)CC[C@]4(C)[C@H]3CC[C@]12C.[Na+].[Na+] [compound 7, 7-(Phosphonatooxy)-ursodeoxycholic acid sodium salt] | – | – | – | – | ≥ 20 mg/mL |
